# Laboratory results published in paper PMC10458893, “Design of Protegrin-1 Analogs with Improved Antibacterial Selectivity” (Pharmaceutics, 2023).
# Like-named read-outs stand apart in the source and are kept apart here. Positions of bridges follow the written chain, without caps; N, C: chain ends. Residues, ends and D or L forms follow the SMILES beside them.
# Legend:
# [1] = test system: human keratinocyte cell line (HaCaT); assay: Cytotoxicity MTT assay; assay type: cell-based; settings: 18 h, 128
# Description: In order to evaluate the cytotoxicity of the peptides against a human keratinocyte cell line (HaCaT, Cat. No. 300493) (Cell Lines Service, Köln, Germany), the colorimetric 3-(4,5-dimethylthiazol-2-yl)-2,5-diphenyltetrazolium bromide (MTT) dye reduction assay was performed, as described in a previous publication. Wells containing no peptide were used as a 100% survival control. Each peptide was tested in two separate experiments to ensure the reliability of the results.
# [2] = test system: K. pneumoniae ATCC 700603; assay type: cell-based, Klebsiella pneumoniae; settings: ATCC 700603, 24 h
# Description: (§1) The antimicrobial activity of the peptides was determined using two-fold serial dilutions in sterile 96-well flat-bottom polystyrene microplates (Eppendorf, Hamburg, Germany) (Cat. No. 0030730011), as previously described. The following strains of bacteria were used: E. coli ATCC 25922, E. coli ML35p (ATCC collection), E. coli BW 25113 (Keio collection), Pseudomonas aeruginosa PAO1 (ATCC collection), P. aeruginosa ATCC 27853, Klebsiella pneumoniae ATCC 700603, Staphylococcus aureus 209P (ATCC collection), S. aureus ATCC 29213, and Micrococcus luteus B-1314 (VKM collection). Acinetobacter baumannii (strain XDR CI 2675) was provided by the I.M. Sechenov First Moscow State Medical University hospital. After a 24 h incubation period, the metabolic activity of the bacteria was assessed by adding 20 µL of a redox indicator, resazurin (Sigma-Aldrich, St. Louis, MO, USA), at a concentration of 0.1 mg/mL, to the wells. The plate was then incubated for a further two hours. The minimum inhibitory concentration (MIC) was determined as the lowest concentration of the peptide at which no color change in the resazurin indicator was observed. The results were presented as median values, which were determined based on at least three independent experiments carried out in triplicate.
# E. coli ML35p = assay type: cell-based
# Description: as §1
# E. coli ATCC 25922 [3] = assay type: cell-based; settings: ATCC 25922, 24 h
# Description: as §1
# E. coli BW 25113 = assay type: cell-based; settings: two-fold serial dilutions, 24 h incubation, resazurin read-out; median of at least three independent experiments in triplicate
# Description: as §1
# [4] = test system: Acinetobacter baumannii (strain XDR CI 2675); assay type: cell-based
# Description: as §1
# all the test strains = assay type: cell-based; settings: geometric mean over the 10 test strains
# Description: as §1
# M. luteus B-1314 = assay type: cell-based, Micrococcus luteus; settings: B-1314, 24 h
# Description: as §1
# P. aeruginosa ATCC 27853 = assay type: cell-based, Pseudomonas aeruginosa; settings: ATCC 27853, 24 h
# Description: as §1
# P. aeruginosa PAO1 = assay type: cell-based, Pseudomonas aeruginosa; settings: PAO1, 24 h
# Description: as §1
# [5] = test system: freshly isolated human erythrocytes (hRBCs); assay: Hemolysis assay (hemoglobin release); assay type: cell-based; settings: red cells of human, 64
# Excerpt: To assess the hemolytic activity of the compounds, freshly isolated human erythrocytes (hRBCs) were used according to the methodology described in a previous study. Melittin was used as a positive peptide control that induces significant hemolysis. Isotonic phosphate buffer (PBS) served as a negative control, while 0.1% Triton X-100 solution was used as a control for complete hemolysis.
# S. aureus 209P = assay type: cell-based, Staphylococcus aureus; settings: 24 h
# Description: as §1
# S. aureus ATCC 29213 = assay type: cell-based, Staphylococcus aureus; settings: ATCC 29213, 24 h
# Description: as §1
# E. coli ATCC 25922 [6] = assay: Systemic septicemia infection mice model; assay type: in vivo; settings: BALB/c mice n = 5, i.p. E. coli ATCC 25922 10^6 CFU with mucin; 10 mg/kg i.p. at 1 h and 4 h; 7 days
# Description: Experiments were performed with male and female 8–10-week-old BALB/c mice (22–24 g, “Andreevka” laboratory animal nursery FMBA, Russia) according to the previously described method. Briefly, a total of 3 groups of 5 mice per group were infected by intraperitoneal (i.p.) injection of the bacterial inoculum (E. coli ATCC 25922), 10^6 colony forming units (CFU) per animal, in the presence of mucin. All the animals received two i.p. injections: 1 h and 4 h after bacterial challenge. The first group received ciprofloxacin (Sigma-Aldrich, St. Louis, MO, USA) as a positive control at a dose of 10 mg/kg per injection. The second group received peptide [V16R] at a dose of 5 mg/kg per injection. The third group received PBS as a vehicle control. Animals were monitored for 7 days post-infection. All the surviving mice were euthanized by CO2 asphyxiation. The spleen was aseptically removed, homogenized, serially diluted, and plated on Endo agar to detect CFU in a sample.
SMILES,"Cell Viability, % (128 μM) [1]","MIC, K. pneumoniae ATCC 700603 [2] [µM]","MIC, E. coli ML35p (E. coli ML35p; ML35p, 24 h) [µM]","MIC, E. coli ATCC 25922 (E. coli ATCC 25922 [3]) [µM]","MIC, E. coli BW 25113 (E. coli BW 25113) [µM]","MIC, A. baumannii ([4]; strain XDR CI 2675, 24 h) [µM]","MIC (GM), geometric mean of the peptide's MICs against all the test strains (all the test strains) [µM]","MIC, M. luteus B-1314 (M. luteus B-1314) [µM]","MIC, P. aeruginosa ATCC 27853 (P. aeruginosa ATCC 27853) [µM]","MIC, P. aeruginosa PAO1 (P. aeruginosa PAO1) [µM]","Hemolytic activity, % (64 μM) [5]","MIC, S. aureus 209P (S. aureus 209P) [µM]","MIC, S. aureus ATCC 29213 (S. aureus ATCC 29213) [µM]","MIC, E. coli ML35p (E. coli ML35p; two-fold serial dilutions, 24 h incubation, resazurin read-out, median of at least three independent experiments in triplicate) [µM]","MIC, A. baumannii ([4]; strain XDR CI 2675, two-fold serial dilutions, 24 h incubation, resazurin read-out, median of at least three independent experiments in triplicate) [µM]",Survival of mice (E. coli ATCC 25922 [6])
"CC(C)C[C@H](NC(=O)[C@H](CCCNC(=N)N)NC(=O)CNC(=O)CNC(=O)[C@@H](N)CCCNC(=N)N)C(=O)N[C@H]1CSSC[C@@H](C(=O)N[C@H](C(=O)NCC(=O)N[C@@H](CCCNC(=N)N)C(=O)O)C(C)C)NC(=O)[C@H](C)NC(=O)[C@@H]2CSSC[C@H](NC(=O)[C@H](Cc3ccc(O)cc3)NC1=O)C(=O)N[C@@H](CCCNC(=N)N)C(=O)N[C@@H](CCCNC(=N)N)C(=O)N[C@@H](CCCNC(=N)N)C(=O)N[C@@H](Cc1ccccc1)C(=O)N2 [[V14A]] (H-RGGRLCYCRRRFCACVGR-OH; disulfide 6-15, 8-13; N-terminus and C-terminus assumed)",12.05 (± 2.8) %,1,0.25,0.5,0.125,0.125,0.4,0.5,0.25,0.5,39.0 (±10.2) %,1,1,,,
"CC(C)C[C@H](NC(=O)[C@H](CCCNC(=N)N)NC(=O)CNC(=O)CNC(=O)[C@@H](N)CCCNC(=N)N)C(=O)N[C@H]1CSSC[C@@H](C(=O)N[C@H](C(=O)NCC(=O)N[C@@H](CCCNC(=N)N)C(=O)O)C(C)C)NC(=O)[C@H](CCCNC(=N)N)NC(=O)[C@@H]2CSSC[C@H](NC(=O)[C@H](Cc3ccc(O)cc3)NC1=O)C(=O)N[C@@H](CCCNC(=N)N)C(=O)N[C@@H](CCCNC(=N)N)C(=O)N[C@@H](CCCNC(=N)N)C(=O)N[C@@H](Cc1ccccc1)C(=O)N2 [[V14R]] (H-RGGRLCYCRRRFCRCVGR-OH; disulfide 6-15, 8-13; N-terminus and C-terminus assumed)",98.6 (± 6.0) %,32,4,4,2,2,9.8,2,>32,32,1.2 (±0.43) %,32,32,,,
"CC(C)C[C@H](NC(=O)[C@H](CCCNC(=N)N)NC(=O)CNC(=O)CNC(=O)[C@@H](N)CCCNC(=N)N)C(=O)N[C@H]1CSSC[C@@H](C(=O)N[C@@H](C)C(=O)NCC(=O)N[C@@H](CCCNC(=N)N)C(=O)O)NC(=O)[C@H](C(C)C)NC(=O)[C@@H]2CSSC[C@H](NC(=O)[C@H](Cc3ccc(O)cc3)NC1=O)C(=O)N[C@@H](CCCNC(=N)N)C(=O)N[C@@H](CCCNC(=N)N)C(=O)N[C@@H](CCCNC(=N)N)C(=O)N[C@@H](Cc1ccccc1)C(=O)N2 [[V16A]] (H-RGGRLCYCRRRFCVCAGR-OH; disulfide 6-15, 8-13; N-terminus and C-terminus assumed)",8.0 (± 5.35) %,1,0.125,0.5,0.25,0.125,0.4,0.5,0.5,0.25,47.8 (±11.96) %,1,1,,,
"CC(C)C[C@H](NC(=O)[C@H](CCCNC(=N)N)NC(=O)CNC(=O)CNC(=O)[C@@H](N)CCCNC(=N)N)C(=O)N[C@H]1CSSC[C@@H](C(=O)N[C@H](C(=O)NCC(=O)N[C@@H](CCCNC(=N)N)C(=O)O)C(C)C)NC(=O)[C@H](C(C)C)NC(=O)[C@@H]2CSSC[C@H](NC(=O)[C@H](CCCNC(=N)N)NC1=O)C(=O)N[C@@H](CCCNC(=N)N)C(=O)N[C@@H](CCCNC(=N)N)C(=O)N[C@@H](CCCNC(=N)N)C(=O)N[C@@H](Cc1ccccc1)C(=O)N2 [[Y7R]] (H-RGGRLCRCRRRFCVCVGR-OH; disulfide 6-15, 8-13; N-terminus and C-terminus assumed)",67.6 (± 8.68) %,8,,0.5,0.5,,2.5,2,4,8,2.1 (±0.53) %,16,16,0.5,0.5,
"O=C(O)c1cn(C2CC2)c2cc(N3CCNCC3)c(F)cc2c1=O [ciprofloxacin, reference compound]",,,,,,,,,,,,,,,,survival of all mice
